Measurements as given in US9216991B2 (Ares Trading S.A., priority 2012, dated 2015).
Counter-ions that a name gives are not always drawn.

Biological target: T1, IRAK4 (Homo sapiens, UniProt Q9NWZ3)
T1 construct: His (N); TEV cleavage site (N)
T1 sequence (Q9NWZ3 1-460): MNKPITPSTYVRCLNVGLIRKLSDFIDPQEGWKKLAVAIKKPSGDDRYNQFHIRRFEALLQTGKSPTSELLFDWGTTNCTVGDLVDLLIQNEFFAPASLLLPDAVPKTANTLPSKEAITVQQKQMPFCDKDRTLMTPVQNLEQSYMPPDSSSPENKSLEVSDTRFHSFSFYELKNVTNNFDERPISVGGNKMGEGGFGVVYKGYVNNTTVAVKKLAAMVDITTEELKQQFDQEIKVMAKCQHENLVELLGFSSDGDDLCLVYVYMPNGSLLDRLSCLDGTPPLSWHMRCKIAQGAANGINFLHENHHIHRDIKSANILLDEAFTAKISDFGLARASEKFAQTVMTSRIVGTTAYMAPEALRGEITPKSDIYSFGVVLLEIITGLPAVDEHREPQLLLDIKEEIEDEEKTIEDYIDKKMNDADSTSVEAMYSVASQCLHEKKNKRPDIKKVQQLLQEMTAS
Experiment: IRAK4 Enzymatic Assay
Type: biochemical
Conditions: His-TEV-IRAK4 20 ng/well, ATP 2 μM, STK1-biotin peptide 300 nM, 3 hours at 30° C., FlashPlate radioactivity
Outline: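 Recombinant His-TEV-tagged IRAK4 (20 ng/well) phosphorylates biotinylated STK1 peptide (300 nM) with 2 μM ATP plus [^33P]ATP, 3 h at 30 °C in pH 7.0 HEPES buffer with MgCl2 and MnCl2; compounds tested 20 μM to 1 nM. Reaction stopped with EDTA; incorporated radioactivity counted on streptavidin FlashPlates.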

IC50 [nM] | Structure (SMILES)
< 100 | C[C@@H](CO)NC(=O)[C@H]1CC[C@H](n2cc(-c3cnc(-c4cccc(-c5cnn(C)c5)c4)nc3)cn2)CC1 [Example 198, Trans-4-(4-{2-[3-(1-Methyl-1H-pyrazol-4-yl)-phenyl]-pyrimidin-5-yl}-pyrazol-1-yl)-cyclohexanecarboxylic acid ((S)-2-hydroxy-1-methyl-ethyl)-amide]
100 to 1000 | Cn1cc(-c2cccc(-c3ncc(-c4cnn(C5CCN(C(=O)C6CC(=O)C6)CC5)c4)cn3)c2)cn1 [Example 117, 3-[4-(4-{2-[3-(1-Methyl-1H-pyrazol-4-yl)-phenyl]-pyrimidin-5-yl}-pyrazol-1-yl)-piperidine-1-carbonyl]-cyclobutanone]
< 100 | Cn1cc(-c2cccc(-c3ncc(-c4cnn([C@H]5CC[C@H](C(N)=O)CC5)c4)cn3)c2)cn1 [Example 206, Trans-4-(4-{2-[3-(1-Methyl-1H-pyrazol-4-yl)-phenyl]-pyrimidin-5-yl}-pyrazol-1-yl)-cyclohexanecarboxylic acid amide]
1000 to 5000 | Cn1cc(-c2cccc(-c3ncc(-c4cnn(C5CCOCC5CN5CCOCC5)c4)cn3)c2)cn1 (stereo not drawn) [Example 271, 4-[4-(4-{2-[3-(1-Methyl-1H-pyrazol-4-yl)-phenyl]-pyrimidin-5-yl}-pyrazol-1-yl)-tetrahydro-pyran-3-ylmethyl]-morpholine]
100 to 1000 | Cn1cc(-c2cccc(-c3ncc(-c4cnn([C@@H]5CCNC[C@@H]5F)c4)cn3)c2)cn1 (relative stereo) [Example 265]
100 to 1000 | Cn1cc(-c2cccc(-c3ncc(-c4cnn(CCc5ccccn5)c4)cn3)c2)cn1 [Example 47, 2-[3-(1-Methyl-1H-pyrazol-4-yl)-phenyl]-5-[1-(2-pyridin-2-yl-ethyl)-1H-pyrazol-4-yl]-pyrimidine]
100 to 1000 | CC(=O)N1CC[C@@H](n2cc(-c3cnc(-c4cccc(-c5cnn(C)c5)c4)nc3)cn2)[C@H](O)C1 (single isomer, unassigned) [Example 201]
100 to 1000 | Cn1cc(-c2cccc(-c3ncc(-c4cnn(C5CCN(C(=O)C(O)C(F)(F)F)CC5)c4)cn3)c2)cn1 (stereo not drawn) [Example 115, 3,3,3-Trifluoro-2-hydroxy-1-[4-(4-{2-[3-(1-methyl-1H-pyrazol-4-yl)-phenyl]-pyrimidin-5-yl}-pyrazol-1-yl)-piperidin-1-yl]-propan-1-one]
< 100 | Cn1cc(-c2cccc(-c3ncc(-c4cnn(C5CCN(C6CCOCC6)CC5)c4)cn3)c2)cn1 [Example 39, 2-[3-(1-Methyl-1H-pyrazol-4-yl)-phenyl]-5-{1-[1-(tetrahydro-pyran-4-yl)-piperidin-4-yl]-1H-pyrazol-4-yl}-pyrimidine]
1000 to 5000 | Cn1cc(-c2cccc(-c3ncc(-c4cnn(CC(=O)N5CCCCC5)c4)cn3)c2)cn1 [Example 25, 2-(4-{2-[3-(1-Methyl-1H-pyrazol-4-yl)-phenyl]-pyrimidin-5-yl}-pyrazol-1-yl)-1-piperidin-1-yl-ethanone]
100 to 1000 | CC(C)NC(=O)[C@H]1CC[C@H](n2cc(-c3cnc(-c4cccc(-c5cnn(C)c5)c4)nc3)cn2)CC1 [Example 174, 4-(4-{2-[3-(1-Methyl-1H-pyrazol-4-yl)-phenyl]-pyrimidin-5-yl}-pyrazol-1-yl)-cyclohexanecarboxylic acid isopropylamide]
< 100 | CO[C@H]1CCN(C(=O)[C@H]2CC[C@H](n3cc(-c4cnc(-c5cccc(-c6cnn(C)c6)c5)nc4)cn3)CC2)C1 [Example 191, Trans-((S)-3-Methoxy-pyrrolidin-1-yl)-[4-(4-{2-[3-(1-methyl-1H-pyrazol-4-yl)-phenyl]-pyrimidin-5-yl}-pyrazol-1-yl)-cyclohexyl]-methanone]
100 to 1000 | Cn1cc(-c2cccc(-c3ncc(-c4cnn(CC(O)c5ccccn5)c4)cn3)c2)cn1 (stereo not drawn) [Example 215, 2-(4-{2-[3-(1-Methyl-1H-pyrazol-4-yl)-phenyl]-pyrimidin-5-yl}-pyrazol-1-yl)-1-pyridin-2-yl-ethanol]
100 to 1000 | CN(C)C(=O)CCn1cc(-c2cnc(-c3cccc(-c4cnn(C)c4)c3)nc2)cn1 [Example 85, N,N-Dimethyl-3-(4-{2-[3-(1-methyl-1H-pyrazol-4-yl)-phenyl]-pyrimidin-5-yl}-pyrazol-1-yl)-propionamide]
100 to 1000 | CC(C)n1cc(-c2cccc(-c3ncc(-c4cnn(C5CCNCC5)c4)cn3)c2)cn1 [Example 20, 2-[3-(1-Isopropyl-1H-pyrazol-4-yl)-phenyl]-5-(1-piperidin-4-yl-1H-pyrazol-4-yl)-pyrimidine hydrochloride]
< 100 | CC(=O)N1CCC[C@@H](n2cc(-c3cnc(-c4cccc(-c5cnn(C)c5)c4)nc3)cn2)C1 [Example 269, 1-[3-((R)-4-{2-[3-(1-Methyl-1H-pyrazol-4-yl)-phenyl]-pyrimidin-5-yl}-pyrazol-1-yl)-piperidin-1-yl]-ethanone]
100 to 1000 | Cn1cc(-c2cccc(-c3ncc(-c4cnn(CC(=O)N5CC6(COC6)C5)c4)cn3)c2)cn1 [Example 55, 2-(4-{2-[3-(1-Methyl-1H-pyrazol-4-yl)-phenyl]-pyrimidin-5-yl}-pyrazol-1-yl)-1-(2-oxa-6-aza-spiro[3.3]hept-6-yl)-ethanone]
< 100 | CC(=O)N1CCC(n2cc(-c3cnc(-c4cccc(-c5cnn(C)c5)c4)nc3)cn2)CC1 [Example 5, 1-[4-(4-{2-[3-(1-Methyl-1H-pyrazol-4-yl)-phenyl]-pyrimidin-5-yl}-pyrazol-1-yl)-piperidin-1-yl]-ethanone]
< 100 | Cn1cc(-c2cccc(-c3ncc(-c4cnn([C@H]5CC[C@H](OCC(C)(C)O)CC5)c4)cn3)c2)cn1 [Example 224, trans-2-Methyl-1-[4-(4-{2-[3-(1-methyl-1H-pyrazol-4-yl)-phenyl]-pyrimidin-5-yl}-pyrazol-1-yl)-cyclohexyloxy]-propan-2-ol]
< 100 | Cn1cc(-c2cccc(-c3ncc(-c4cnn([C@H]5CC[C@H](C(=O)N6C[C@H](O)[C@@H](O)C6)CC5)c4)cn3)c2)cn1 [Example 244, ((3S,4S)-3,4-Dihydroxy-pyrrolidin-1-yl)-[4-(4-{2-[3-(1-methyl-1H-pyrazol-4-yl)-phenyl]-pyrimidin-5-yl}-pyrazol-1-yl)-cyclohexyl]-methanone]
< 100 | Cn1cc(-c2cccc(-c3ncc(-c4cnn(C5CCN(C6CCCOC6)CC5)c4)cn3)c2)cn1 (stereo not drawn) [Example 270, 2-[3-(1-Methyl-1H-pyrazol-4-yl)-phenyl]-5-{1-[1-(tetrahydro-pyran-3-yl)-piperidin-4-yl]-1H-pyrazol-4-yl}-pyrimidine]
100 to 1000 | c1cncc(-c2cccc(-c3ncc(-c4cnn(C5CCNCC5)c4)cn3)c2)c1 [Example 2, 5-(1-(piperidin-4-yl)-1H-pyrazol-4-yl)-2-(3-(pyridin-3-yl)phenyl)pyrimidine hydrochloride]
100 to 1000 | Cn1cc(-c2cccc(-c3ncc(-c4cnn(CC5CNC5)c4)cn3)c2)cn1 [Example 66, 5-(1-Azetidin-3-ylmethyl-1H-pyrazol-4-yl)-2-[3-(1-methyl-1H-pyrazol-4-yl)-phenyl]-pyrimidine hydrochloride]
100 to 1000 | Cn1cc(-c2ccc(F)c(-c3ncc(-c4cnn([C@H]5CC[C@H](O)CC5)c4)cn3)c2)cn1 [Example 292, 4-(4-{2-[2-Fluoro-5-(1-methyl-1H-pyrazol-4-yl)-phenyl]-pyrimidin-5-yl}-pyrazol-1-yl)-cyclohexanol]
